Test results published in patent publication US4837227A, “Aminoalkylthiodibenzoxepins and pharmaceutical use” (Hoechst-Roussel Pharmaceuticals, Inc., priority 1985, dated 1989).
Counter-ions that a name gives are not always drawn. Like-named read-outs stand apart in the source and are kept apart here. One block for each molecule: values may come before it.

Assays:
[1] = system: tetrabenazine-induced depression (ptosis) in mice; assay: inhibition of tetrabenazine-induced depression (ptosis) in mice; type: in vivo; conditions: Mus musculus, read-out: ED50, 50% inhibition of the ptosis of the tetrabenazine-induced depression
Description: Thus, for instance, the intraperitoneal dose at which the following compounds effect a 50% inhibition of the ptosis of the tetrabenazine-induced depression (ED50) in mice are: […]

[2] = system: supramaximal electro shock in mice; assay: protection from supramaximal electro shock in mice (anticonvulsant); type: in vivo; conditions: Mus musculus, ip, intraperitoneal dose, read-out: ED50, approximately 50% protective from the effect of supramaximal electro shock
Description: Compounds of the present invention are still further useful as anticonvulsant agents for mammals, as determined by the method of Woodbury, L. A. and Davenport, V. D., in Arch. Int. Pharmacodynam, Vol. 92. (1952) at pages 97 to 107. Thus, for instance, the following intraperitoneal doses at which an approximately 50% protective (ED50) from the effect of supramaximal electro shock in mice are: […]

[3] = system: climbing behavior induced by apomorphine in mice; assay: apomorphine-induced climbing mice assay (neuroleptic activity); type: in vivo, CD-1 male mice; conditions: intraperitoneally 30 minutes prior to apomorphine 1.5 mg/kg s.c.
Method: Central Nervous System Depressant (Neuroleptic) Activity Climbing Mice Assay
The subject CD-1 male mice (23-27 grams) were group-housed under standard laboratory conditions. The mice were individually placed in wire mesh stick cages (4"×4"×10") and were allowed one hour for adaptation and exploration of the new environment. Then apomorphine was injected subcutaneously at 1.5 mg/kg, a dose causing climbing in all subjects for 30 minutes. Compounds to be tested for neuroleptic activity were injected intraperitoneally 30 minutes prior to the apomorphine challenge at a screening dose of 10 mg/kg.
For evaluation of climbing, 3 readings were taken at 10, 20 and 30 minutes after apomorphine administration according to the following scale:
Mice consistently climbing before the injection of apomorphine were discarded.
With full-developed apomorphine climbing, the animals were hanging onto the cage walls, rather motionless, over longer periods of time. By contrast, climbs due to mere motor stimulation usually only lasted a few seconds.
The climbing scores were individually totaled (maximal score: 6 per mouse over 3 readings) and the total score of the control group (vehicle intraperitineally -- apomorphine subcutaneously) was set to 100%.

tail flick in mice = assay: modified D'Amour-Smith analgesia (tail flick) assay; type: in vivo, male mice (Charles River: CD-1); conditions: generally s.c.
Description: Analgesic Activity Modified D'Amour-Smith Assay (Tail Flick)
Male mice (Charles River: CD-1) from 18-30 grams were used as test subjects. The mouse tails were individually placed on a "Vee" block and, subsequently, a painful stimulus was produced by an intense light beam (Emdie Instrument Co., Louisa, VA). The subject quickly responds to the noxious stimuli by flicking its tail. The reaction time, the interval between stimulus onset and response, was automatically measured in 1/10-second increments. Prior to drug administration, two control readings of reaction time were measured for each subject with approximately 15 minutes separating the tests. Subjects were discarded if their reaction times in these control tests varied by more than one second or if their inclusion in the study group caused the spread of reaction time to exceed three seconds.
The mean response time (x) and the standard deviation (SD) of the values were then calculated for each set of control scores. The formula presented below was used to calculate cut-off values (C.O.) for each set of control scores and the average of these C.O. values was used to determine evidence of analgesic activity in subsequent drug testing.
The C.O. value was actually a determination of a reaction time which exceeds the mean by two standard deviations. Any reaction time, in subsequent drug tests, which was greater than the C.O. value, therefore exceeds 95% of a normal Gaussian distribution and was called a "positive response" indicative of analgesic activity. Latency changes were calculated by subtracting the tail flick latency of the average control times from the latency after treatment for each mouse.
Compounds were tested in treatment groups of ten subjects and drugs, prepared in distilled water, were generally administered subcutaneously (s.c.) in volumes equivalent to 10 cc/kg. The initial testing was usually in the form of a time response at intervals of 15, 30, 45 and 60 minutes after dosing. If analgesic activity was still increasing at 60 minutes, then two additional groups were tested at 90 minute and 120 minute post dosing.
A time response indicated the period of greatest analgesic effect after dosing. Percent analgesic activity was calculated in the following manner: [formula] Grp.=Group Veh.=Vehicle
The ED50 was determined at the peak time of drug activity. A minimum of three dose groups were employed. Drugs were administered in a randomized manner. ED50 's were calculated using Litchfield-Wilcoxon (LITWL on PDP II) computer analysis.

[4] = system: phenyl-p-quinone writhing in mice; assay: phenyl-p-quinone writhing assay in mice (analgesia); type: in vivo; conditions: Mus musculus, sc, subcutaneous dose, read-out: ED50, approximately 50% inhibition of writhing
Description: Compounds of the invention are further useful as analgesic agents due to their ability to alleviate pain in mammals. […] Exptl. Biol Med., 95 729 (1957)]. Thus for instance, the subcutaneous dose effecting an approximately 50% inhibition of writhing (ED50) in mice produced in this assay is as follows: […]

[5] = stability study, gas chromatographic assay (acid stability); type: physicochemical
Method: Gas chromatographic conditions were established under which 2-fluoro-11-[β-(dimethylamino)ethoxy]dibenz[b,f]oxepin (as the hydrobromide or hydrochloride salts), 2-fluoro-11-[β-(dimethylamino)ethylthio]dibenz[b,f]oxepin (as the hydrobromide salt) and 10,11-dihydro-10-oxodibenz[b,f]oxepin were separated:
Column-Glass 2m×2mm ID packed with 3% OV-225 on 80/100 supelcoport
Temperature: Isothermal at 220° C.
Flow Rate: He at 45 ml/min
Instrument: Perkin-Elmer 3920B
Solutions of 2-fluoro-11-[β-(dimethylamino)ethoxy]dibenz[b,f]oxepin and 2-fluoro-11-[β-(dimethylamino)ethylthio]dibenz[b,f]oxepin were prepared in water at a concentration of 200 mg/100 ml. Portions of these stock aqueous solutions were used in each of the following experiments. All aqueous samples were prepared for gas chromotographic (GC) injection by first adding sodium carbonate solution to adjust the pH to 9 and then extracting with ethyl acetate. The ethyl acetate layer was separated and 2.0μ of it were injected.
II. Acidification of 2.0 ml of 2-fluoro-11-[β-(dimethylamino)ethoxy]dibenz[b,f]oxepin stock solution with 0.2 ml of concentrated hydrochloric acid and standing at ambient temperature produced increases in the levels of 10,11-dihydro-10-oxodibenz[b,f]oxepin beyond the 0.2% level initially contaminating the sample of 2-fluoro-11-[β-(dimethylamino)ethoxy]dibenz[b,f]oxepin.
III. Simultaneous experiments were performed using 2.0 ml of each stock solution of […] and 2-fluoro-11-[β-(dimethylamino)ethylthio]dibenz[b,f]oxepin in individual test tubes. Acidification of each solution with 0.2 ml of concentrated hydrochloric acid and side by side warming (not reflux) for 2 minutes (electric heat gun) produced a visible change.

[6] = M. Protvia, et al. Il Farmaco XXI, 98 (1966); cited from earlier work
[7] = 0.2 ml concentrated hydrochloric acid, warming (not reflux) for 2 minutes

SMILES: CN(C)CCSC1Cc2ccccc2Oc2ccc(Cl)cc21.O=C(O)C(=O)O (stereo not drawn) [2-chloro-10,11-dihydro-11-[β-(dimethylamino)-ethylthio]-dibenz[b,f]oxepin oxalate]
- ED50 ([1]; ip, intraperitoneal dose): 3.5 mg/kg
- ED50 [2]: 19.4 mg/kg

SMILES: CN(C)CCSC1=Cc2ccccc2Oc2ccc(Cl)cc21 [2-chloro-11-[β-(dimethylamino)ethylthio]dibenz[b,f]oxepin]
- Activity (% Inhibition of Climbing) ([3]; 10 mg/kg): 5%
- Analgesic Activity (%) (tail flick in mice; dose 25 mg/kg): 20%

SMILES: CN(C)CCSC1Cc2ccccc2Oc2ccc(F)cc21.O=C(O)C(=O)O (stereo not drawn) [2-fluoro-10,11-dihydro-11-[β-(dimethylamino)ethylthio]dibenz[b,f]oxepin oxalate]
- ED50 ([1]; oral dose (footnote *)): 7.6 mg/kg
- ED50 [4]: 1.9 mg/kg
- ED50 [2]: 9 mg/kg

- visible change of the acidified solution on warming [5, 7]: became white and cloudy
- decomposition on reflux after addition of concentrated hydrochloric acid ([5]; 25 ml stock + 2.5 ml concentrated hydrochloric acid, further reflux 10 mins, to 10,11-dihydro-10-oxodibenz[b,f]oxepin): complete decomposition
- decomposition on reflux of aqueous stock solution ([5]; water, 200 mg/100 ml, reflux, 45 minutes): no apparent decomposition
- degraded at 2 min ([5]; water, concentrated hcl, 0.2 ml concentrated hydrochloric acid, warming (not reflux) for 2 minutes, read-out: decomposed to 10,11-dihydro-10-oxodibenz[b,f]oxepin by GC analysis): 87.2%
- degraded at 2 min ([5]; water, concentrated hcl, 2 min, ambient temperature, 2.0 ml stock + 0.2 ml concentrated hydrochloric acid, product 10,11-dihydro-10-oxodibenz[b,f]oxepin, read-out: % Increase in decomposition product): 0.35%
- degraded at 1 h ([5]; water, concentrated hcl, 60 min, ambient temperature, 2.0 ml stock + 0.2 ml concentrated hydrochloric acid, product 10,11-dihydro-10-oxodibenz[b,f]oxepin, read-out: % Increase in decomposition product): 2.16%
- degraded at 140 min ([5]; water, concentrated hcl, 140 min, ambient temperature, 2.0 ml stock + 0.2 ml concentrated hydrochloric acid, product 10,11-dihydro-10-oxodibenz[b,f]oxepin, read-out: % Increase in decomposition product): 3%
SMILES: CN(C)CCOC1=Cc2ccccc2Oc2ccc(F)cc21 [2-fluoro-11-[β-(dimethylamino)ethoxy]dibenz[b,f]oxepin]

SMILES: Br.CN(C)CCSC1=Cc2ccccc2Oc2ccc(F)cc21 [2-fluoro-11-[β-(dimethylamino)ethylthio]dibenz[b,f]oxepin hydrobromide]
- ED50 ([1]; ip, intraperitoneal dose): 4.3 mg/kg
- ED50 [2]: 9.2 mg/kg

SMILES: CN(C)CCSC1=Cc2ccccc2Oc2ccc(F)cc21 [2-fluoro-11-[β-(dimethylamino)ethylthio]dibenz[b,f]oxepin]
- Activity (% Inhibition of Climbing) ([3]; 10 mg/kg): 10%
- decomposition by GC analysis (in words) [5, 7]: did not decompose
- visible change of the acidified solution on warming [5, 7]: remained clear and colorless
- Analgesic Activity (%) (tail flick in mice; dose 23.9 mg/kg): 50%

SMILES: CNCCSC1=Cc2ccccc2Oc2ccc(F)cc21.O=C(O)/C=C\C(=O)O [2-fluoro-11-[β-(methylamino)ethylthio]dibenz[b,f]oxepin maleate]
- ED50 ([1]; ip, intraperitoneal dose): 0.3 mg/kg
- ED50 [4]: 2.3 mg/kg
- ED50 [2]: 9.9 mg/kg

SMILES: CNCCSC1=Cc2ccccc2Oc2ccc(F)cc21 [2-fluoro-11-[β-(methylamino)ethylthio]dibenz[b,f]oxepin]
- Analgesic Activity (%) (tail flick in mice; dose 11.3 mg/kg): 50%

SMILES: CN(C)CCSC1Cc2ccccc2Oc2ccccc21 (stereo not drawn) [10,11-dihydro-10-[β-(dimethylamino)ethylthio[dibenz[b,f]oxepin oxalate]
- ED50 ([1]; ip, intraperitoneal dose): 7 mg/kg
- ED50 [2]: 7.7 mg/kg

SMILES: CNCCSC1=Cc2ccccc2Oc2ccccc21.O=C(O)C(=O)O [10-[β(methylamino)ethylthio]dibenz[b,f]oxepin oxalate]
- ED50 ([1]; ip, intraperitoneal dose): 3.4 mg/kg
- ED50 [4]: 2.3 mg/kg
- ED50 [2]: 21 mg/kg

SMILES: CN(C)CCSC1=Cc2ccccc2Oc2ccccc21 [10-[β-(dimethylamino)ethylthio]dibenz[b,f]oxepin]
- Activity (% Inhibition of Climbing) ([3]; 15 mg/kg): 20%
- Analgesic Activity (%) (tail flick in mice; dose 25 mg/kg): 30%

SMILES: CNCCSC1=Cc2ccccc2Oc2ccccc21 [10-[β-(methylamino)ethylthio]dibenz[b,f]oxepin]
- Analgesic Activity (%) (tail flick in mice; dose 11.6 mg/kg): 50%

SMILES: CSc1ccc2c(c1)C(SCCN(C)C)=Cc1ccccc1O2 [11-[β-(dimethylamino)ethylthio]-2-(methylthio)dibenz[b,f]oxepin]
- Activity (% Inhibition of Climbing) ([3]; 10 mg/kg): 18%
- Analgesic Activity (%) (tail flick in mice; dose 14.1 mg/kg): 50%

SMILES: CN(C)CCOC1Cc2ccccc2Sc2ccc(Cl)cc21 (centres unmarked) [Amethoclothepine]
- central depressant activity (in words) [6]: central depressant activity
